Read-outs that look alike come from different tables or passages of the source.
Experiment: Phase I study CXR1002-001: plasma pharmacokinetics (LC-MS/MS)
Format: in vivo, human
Conditions: human, plasma, oral; for concentration at 843 h / concentration at 844 h / concentration at 864 h / concentration at 2 h / concentration at 3 h / concentration at 4 h / concentration at 24 h / concentration at 168 h / concentration at 170 h / concentration at 171 h / concentration at 172 h / concentration at 192 h / concentration at 336 h / concentration at 338 h / concentration at 339 h / concentration at 340 h / concentration at 360 h / concentration at 506 h / concentration at 507 h / concentration at 508 h / concentration at 528 h / concentration at 672 h / concentration at 674 h / concentration at 675 h / concentration at 676 h / concentration at 696 h / concentration at 840 h / concentration at 842 h / concentration at 504 h: read-out: Concentration; for concentration at 864 h: 864 hr (Day 37); for concentration at 24 h: 24 hr (Day 2); for concentration at 168 h: 168 hr (Day 8); for concentration at 192 h: 192 hr (Day 9); for concentration at 336 h: 336 hr (Day 15); for concentration at 360 h: 360 hr (Day 16); for concentration at 528 h: 528 hr (Day 23); for concentration at 672 h: 672 hr (Day 29); for concentration at 696 h: 696 hr (Day 30); for concentration at 840 h: 840 hr (Day 36); for concentration at 504 h: 504 hr (Day 22)
Source text: PK samples, PD (fasting) samples, blood glucose, and blood triglyceride samples, were taken over a 6-week period.
Dose limiting toxicity (DLT) will be based on the toxicity assessments over the first 3-week period of the repeat dosing schedule. PK samples (single blood sample) were taken on the following basis: • Every 6 weeks during the repeat dosing phase • If dosing is interrupted or stopped, samples will be taken at intervals according to patient convenience • PK sampling for safety evaluation may take place at any time, as clinically indicated
Plasma samples were collected after the single 50 mg dose at the following timepoints: Pre-dose, and then 0.25, 0.5, 0.75, 1, 1.5, 2, 3, 4, 6, 24, 48, and 72 hours after administration and then once weekly at weeks 2, 3, 4, 5, and 6 (days 8, 15, 22, 29, and 36). For patients treated with the weekly repeat dose, plasma samples were collected at the following timepoints: Pre-dose and then 2, 3, 4 and 24 hours after administration for a total of 6 weeks. Thereafter a single sample was collected every 6 weeks for monitoring of exposure during long term treatment. Plasma samples were processed at site and stored at −80° C. prior to batch shipment to the analytical laboratory.

[1] = 200 mg, Patient 009 Dose 200 mg
[2] = 200 mg, Patient 010 Dose 200 mg
[3] = 300 mg, Patient 011 Dose 300 mg
[4] = 300 mg, Patient 012 Dose 300 mg
[5] = 300 mg, Patient 013 Dose 300 mg
[6] = 300 mg, Patient 014 Dose 300 mg

O=C(O)C(F)(F)C(F)(F)C(F)(F)C(F)(F)C(F)(F)C(F)(F)C(F)(F)F [CXR1002]
concentration at 843 h [1]: 373 µM
concentration at 844 h [1]: 329 µM
concentration at 864 h [1]: 346 µM
concentration at 92 day (200 mg, Patient 009 Dose 200 mg, Day 92): 456 µM
concentration at 19 week (200 mg, Patient 009 Dose 200 mg, Week 19): 618 µM
concentration at 25 week (200 mg, Patient 009 Dose 200 mg, Week 25): 501 µM
concentration at 32 week (200 mg, Patient 009 Dose 200 mg, Week 32): 540 µM
concentration at 0 h (200 mg, Patient 010 Dose 200 mg, 0 hr): 0 nM
concentration at 2 h [2]: 21.1 µM
concentration at 3 h [2]: 30.4 µM
concentration at 4 h [2]: 33.6 µM
concentration at 24 h [2]: 58.6 µM
concentration at 168 h [2]: 51 µM
concentration at 170 h [2]: 81.7 µM
concentration at 171 h [2]: 81.4 µM
concentration at 172 h [2]: 119 µM
concentration at 192 h [2]: 101 µM
concentration at 336 h [2]: 98.8 µM
concentration at 338 h [2]: 118 µM
concentration at 339 h [2]: 103 µM
concentration at 340 h [2]: 66.7 µM
concentration at 360 h [2]: 175 µM
concentration at 506 h [2]: 207 µM
concentration at 507 h [2]: 276 µM
concentration at 508 h [2]: 187 µM
concentration at 528 h [2]: 191 µM
concentration at 672 h [2]: 192 µM
concentration at 674 h [2]: 193 µM
concentration at 675 h [2]: 237 µM
concentration at 676 h [2]: 231 µM
concentration at 696 h [2]: 256 µM
concentration at 840 h [2]: 243 µM
concentration at 842 h [2]: 188 µM
concentration at 843 h [2]: 232 µM
concentration at 844 h [2]: 223 µM
concentration at 864 h [2]: 221 µM
concentration at 2 h [3]: 101 µM
concentration at 3 h [3]: 107 µM
concentration at 4 h [3]: 112 µM
concentration at 24 h [3]: 95.9 µM
concentration at 168 h [3]: 57.9 µM
concentration at 170 h [3]: 112 µM
concentration at 171 h [3]: 122 µM
concentration at 172 h [3]: 138 µM
concentration at 192 h [3]: 178 µM
concentration at 336 h [3]: 131 µM
concentration at 338 h [3]: 160 µM
concentration at 339 h [3]: 160 µM
concentration at 340 h [3]: 147 µM
concentration at 360 h [3]: 237 µM
concentration at 504 h [3]: 145 µM
concentration at 506 h [3]: 204 µM
concentration at 507 h [3]: 288 µM
concentration at 508 h [3]: 244 µM
concentration at 672 h [3]: 255 µM
concentration at 674 h [3]: 291 µM
concentration at 675 h [3]: 304 µM
concentration at 676 h [3]: 243 µM
concentration at 696 h [3]: 326 µM
concentration at 840 h [3]: 270 µM
concentration at 842 h [3]: 384 µM
concentration at 843 h [3]: 350 µM
concentration at 844 h [3]: 282 µM
concentration at 864 h [3]: 387 µM
concentration at 12 week (300 mg, Patient 011 Dose 300 mg, Week 12): 574 µM
concentration at 2 h [4]: 91.4 µM
concentration at 3 h [4]: 93.5 µM
concentration at 4 h [4]: 123 µM
concentration at 24 h [4]: 74 µM
concentration at 168 h [4]: 64.8 µM
concentration at 171 h [4]: 148 µM
concentration at 172 h [4]: 126 µM
concentration at 192 h [4]: 152 µM
concentration at 336 h [4]: 141 µM
concentration at 339 h [4]: 196 µM
concentration at 340 h [4]: 213 µM
concentration at 360 h [4]: 218 µM
concentration at 504 h [4]: 181 µM
concentration at 506 h [4]: 278 µM
concentration at 507 h [4]: 261 µM
concentration at 508 h [4]: 221 µM
concentration at 528 h [4]: 263 µM
concentration at 672 h [4]: 303 µM
concentration at 674 h [4]: 340 µM
concentration at 675 h [4]: 373 µM
concentration at 676 h [4]: 292 µM
concentration at 696 h [4]: 334 µM
concentration at 2 h [5]: 82.7 µM
concentration at 3 h [5]: 76 µM
concentration at 4 h [5]: 85.3 µM
concentration at 24 h [5]: 79.6 µM
concentration at 2 h [6]: 131 µM
concentration at 3 h [6]: 121 µM
concentration at 4 h [6]: 100 µM
concentration at 24 h [6]: 102 µM
concentration at 168 h [6]: 79.6 µM
concentration at 170 h [6]: 154 µM
concentration at 171 h [6]: 178 µM
concentration at 172 h [6]: 180 µM
concentration at 192 h [6]: 178 µM
concentration at 336 h [6]: 173 µM
concentration at 338 h [6]: 297 µM
concentration at 339 h [6]: 270 µM
concentration at 340 h [6]: 261 µM
concentration at 504 h [6]: 288 µM
concentration at 506 h [6]: 336 µM
concentration at 507 h [6]: 374 µM
concentration at 528 h [6]: 420 µM
concentration at 672 h [6]: 355 µM
concentration at 674 h [6]: 389 µM
concentration at 675 h [6]: 400 µM
concentration at 676 h [6]: 411 µM
concentration at 696 h [6]: 478 µM
concentration at 840 h [6]: 426 µM
concentration at 842 h [6]: 506 µM

— US20130029928A1 (priority 2010, published 2013)
